Results: ChEMBL document CHEMBL4811240, “Discovery of N-substituted sulfamoylbenzamide derivatives as novel inhibitors of STAT3 signaling pathway based on Niclosamide” (Eur J Med Chem, 2021)
The source made the active and inactive calls. No cut-off for these calls is given here.

Legend:
[1] = Lipophilicity, log P of the compound; assay type: physicochemical; details: octanol/water
[2] = tested on: SW480; assay: Antiproliferative activity against human SW480 cells assessed as inhibition of cell viability after 48 hrs by MTT assay; assay type: functional, cell-based; details: SW480, 48 h
[3] = tested on: MDA-MB-231; assay: Antiproliferative activity against human MDA-MB-231 cells assessed as inhibition of cell viability at 10 uM after 48 hrs by MTT assay relative to control; assay type: functional
[4] = tested on: HCT-116; assay: Antiproliferative activity against human HCT-116 cells assessed as inhibition of cell viability after 48 hrs by MTT assay; assay type: functional, cell-based; details: HCT-116, 48 h
[5] = tested on: MDA-MB-231; assay: Antiproliferative activity against human MDA-MB-231 cells assessed as inhibition of cell viability after 48 hrs by MTT assay; assay type: functional, cell-based; details: MDA-MB-231, 48 h
[6] = tested on: HCT-116; assay: Antiproliferative activity against human HCT116 cells assessed as inhibition of cell viability at 10 uM after 48 hrs by MTT assay relative to control; assay type: functional
[7] = tested on: L3.6pl; assay: Antiproliferative activity against human L3.6 cells assessed as inhibition of cell viability at 10 uM after 48 hrs by MTT assay relative to control; assay type: functional
[8] = tested on: SW480; assay: Antiproliferative activity against human SW480 cells assessed as inhibition of cell viability at 10 uM after 48 hrs by MTT assay relative to control; assay type: functional
[9] = molecular target: Signal transducer and activator of transcription 3 (Homo sapiens) (UniProt P40763); assay: Inhibition of STAT3 promoter activity in human MDA-MB-231 cells at 1 uM incubated for 24 hrs by dual luciferase reporter assay; assay type: cell-based
[10] = tested on: MDA-MB-231; assay: Inhibition of human MDA-MB-231 cells migration a 1000 nM after 24 hrs by crystal violet staining based transwell migration assay; assay type: functional, cell-based
[11] = tested on: MDA-MB-231; assay: Induction of apoptosis in human MDA-MB-231 cells assessed as apoptotic cells at 10 uM measured after 24 hrs by annexinV-FITC/propidium iodide staining based flow cytometry analysis (reference value: 2.49%); assay type: functional

Signal transducer and activator of transcription 3 (Homo sapiens), sequence (P40763 whole entry): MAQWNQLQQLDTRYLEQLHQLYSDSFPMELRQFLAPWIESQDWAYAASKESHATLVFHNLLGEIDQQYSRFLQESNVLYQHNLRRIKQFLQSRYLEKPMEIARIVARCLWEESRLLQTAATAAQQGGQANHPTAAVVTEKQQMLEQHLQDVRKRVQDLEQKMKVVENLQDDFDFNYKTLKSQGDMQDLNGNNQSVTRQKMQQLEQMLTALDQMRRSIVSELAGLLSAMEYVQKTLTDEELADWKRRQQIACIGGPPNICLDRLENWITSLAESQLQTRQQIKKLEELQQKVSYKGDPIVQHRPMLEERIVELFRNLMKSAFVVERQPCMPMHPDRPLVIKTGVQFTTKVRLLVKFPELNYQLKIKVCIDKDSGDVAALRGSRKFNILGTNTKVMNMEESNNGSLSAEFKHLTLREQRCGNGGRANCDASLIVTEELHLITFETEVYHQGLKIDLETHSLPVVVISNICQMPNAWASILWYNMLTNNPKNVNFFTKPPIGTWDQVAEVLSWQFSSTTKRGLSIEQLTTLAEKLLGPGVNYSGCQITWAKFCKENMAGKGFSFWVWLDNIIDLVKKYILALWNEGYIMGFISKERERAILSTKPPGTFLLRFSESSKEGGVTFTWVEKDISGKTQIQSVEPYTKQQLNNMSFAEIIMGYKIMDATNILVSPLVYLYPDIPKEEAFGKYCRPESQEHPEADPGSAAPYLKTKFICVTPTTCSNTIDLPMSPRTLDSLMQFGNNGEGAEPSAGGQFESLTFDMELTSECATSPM

SMILES	logP [1]	IC50 [2]	inhibition at 10 µM [3]	IC50 [4]	IC50 [5]	inhibition at 10 µM [6]	inhibition at 10 µM [7]	inhibition at 10 µM [8]	inhibition [9]	inhibition [10]	Activity [11]
NS(=O)(=O)c1cccc(NC(=O)c2ccc(Cl)c(S(N)(=O)=O)c2)c1	1.19	> 20 µM	52.8%	17.2 µM	11.9 µM	52.2%	12.1%	34.3%			
NS(=O)(=O)c1cc(C(=O)NCc2cccc(Cl)c2Cl)ccc1Cl	2.97	> 20 µM	51.5%	9.62 µM	> 20 µM	70.4%	11.6%	19.6%			
NS(=O)(=O)c1cc(C(=O)Nc2ccc(C(F)(F)F)cc2)ccc1Cl	2.76	> 20 µM	27.3%	10.8 µM	7.32 µM	55.4%	29.6%	47.4%			
O=C(Nc1ccc([N+](=O)[O-])cc1Cl)c1cc(Cl)ccc1O [NICLOSAMIDE]	3.17		91.5%		0.8 µM	73.8%	66.2%	76.8%	88.2%	Active	19.91%
COc1cc(NC(=O)c2cccc(S(N)(=O)=O)c2)cc(OC)c1OC	0.79	> 20 µM	59.4%	10.7 µM	12.7 µM	57.7%	19.5%	26.9%			
COc1cc(NC(=O)c2cccc(S(N)(=O)=O)c2)c(C(=O)O)cc1OC	0.37	> 20 µM	52.1%	> 20 µM	17.9 µM	22.1%	23.3%	22.9%			
